Data on one molecule can be found in patent publication EP0412760A2, “Benzopyran derivatives” (Beecham Group p.l.c., priority 1989, dated 1991).

Test [1] concerns Spontaneously hypertensive rats. Nature of the test: Antihypertensive activity: systolic blood pressure by tail cuff method. The class given is in vivo. The conditions noted are these: dose of 0.05 mg/kg p.o. As for the experimental part: Systolic blood pressures were recorded by a modification of the tail cuff method described by I.M. Claxton, M.G. Palfreyman, R.H. Poyser, R.L. Whiting, European Journal of Pharmacology, 37, 179 (1976). A W+W BP recorder, model 8005 was used to display pulses. Prior to all measurements rats were placed in a heated environment (33.5 ± 0.5°C) before transfer to a restraining cage. The determination of blood pressure was the mean of 5 readings. Spontaneously hypertensive rats (ages 12-18 weeks) with systolic blood pressures >180 mmHg were considered hypertensive.

Another test deals with trachea. As to the kind of experiment: Bronchodilator activity: relaxation of isolated trachea spirals. The class given is cell-based, guinea pigs. The conditions noted are these: Cavia porcellus; fall in resting tension as percentage of total relaxation evoked by 10⁻³M isoprenaline; guinea pig trachea spirals, Krebs solution at 37°C; read-out: IC₅₀. As for the experimental part:
Male guinea pigs (300-600g) were stunned by a blow to the head and bled from the carotid artery. The trachea was exposed, dissected free of connective tissue, and transferred to oxygenated Krebs solution at 37 °C. Next, spirals (2 per trachea) were prepared by cutting the whole trachea spirally along its longitudinal axis and then dividing this spiral lengthwise. Each preparation was mounted, using silk thread, in a 10ml organ bath filled with Krebs solution at 37 °C and bubbled with 5% CO₂ with O₂. The resting tension of the preparations was set at 2g and changes in muscle tension were monitored isometrically by means of a UFI (2oz) force and displacement transducer (Ormed Ltd) connected to a Linseis pen recorder. All preparations were allowed to equilibrate for 60 minutes. During this equilibration period the preparations were washed by upward displacement at 15 minute intervals and, if necessary, the resting tension was readjusted to 2g using a mechanical micromanipulator system.
Once a steady resting tension had been obtained, the preparations were dosed simultaneously with the test compound (10⁻⁸-2x10⁻⁵M), and finally a maximum relaxation achieved by addition of 10⁻³M isoprenaline. The fall in tension evoked by the test compound was expressed as a percentage of the total relaxation evoked in the presence of 10⁻³ isoprenaline. […]

`CCc1ccc2c(c1)[C@@H](N1CCCCC1=O)[C@H](O)C(C)(C)O2` [compound of formula (I), 3,4-Dihydro-2,2-dimethyl-6-ethyl-4R-(2-oxopiperidin-1-yl)-2H-1-benzopyran-3S-ol]: the “maximum fall in blood pressure” value in test [1] was determined as 19%. For the same molecule, the IC50 in the test on trachea was determined as 230 nM.
